Data set [1] has as its system Aβ42 produced and secreted into the medium of human neuroblastoma SKNBE2 cells. The data set is described as follows: Cellular αlisa assay in SKNBE2 cells, Aβ42. The data set is classed as cell-based. The conditions noted are these: SKNBE2 expressing wild type hAPP695, incubated for 18 hours, read-out: Cellular αlisa assay in SKNBE2 cells Aβ42 pIC50 (converted). The procedure:
(§1) In two αlisa assays the levels of Aβtotal and Aβ42 produced and secreted into the medium of human neuroblastoma SKNBE2 cells are quantified. The assay is based on the human neuroblastoma SKNBE2 expressing the wild type Amyloid Precursor Protein (hAPP695). The compounds are diluted and added to these cells, incubated for 18 hours and then measurements of Aβ42 and Aβtotal are taken. Aβtotal and Aβ42 are measured by sandwich αlisa. αlisa is a sandwich assay using biotinylated antibody AbN/25 attached to streptavidin coated beads and antibody Ab4G8 or cAb42/26 conjugated acceptor beads for the detection of Aβtotal and Aβ42 respectively. In the presence of Aβtotal or Aβ42, the beads come into close proximity. The excitation of the Donor beads provokes the release of singlet oxygen molecules that triggers a cascade of energy transfer in the Acceptor beads, resulting in light emission. Light emission is measured after 1 hour incubation (excitation at […] and emission at 615 nm).
(§2) A best-fit curve is fitted by a minimum sum of squares method to the plot of % Controlmin versus compound concentration. From this an IC50 value (inhibitory concentration causing 50% inhibition of activity) can be obtained.

Data set [2] has as its target T1, recombinant BACE1 protein (Homo sapiens, UniProt P56817).
T1 construct: recombinant BACE1 protein in a final concentration of 1 μg/ml
Put plainly: Biochemical FRET based assay. Particulars: recombinant BACE1 1 μg/ml, APP-derived Swedish-mutation peptide substrate, 120 minutes, room temperature, pH 5.0; read-out: Biochemical FRET based assay pIC50 (converted). The source says:
This assay is a Fluorescence Resonance Energy Transfer Assay (FRET) based assay. The substrate for this assay is an APP derived 13 amino acids peptide that contains the ‘Swedish’ Lys-Met/Asn-Leu mutation of the amyloid precursor protein (APP) β-secretase cleavage site. This substrate also contains two fluorophores: (7-methoxy-coumarin-4-yl)acetic acid (Mca) is a fluorescent donor with excitation wavelength at 320 nm and emission at 405 nm and 2,4-Dinitrophenyl (Dnp) is a proprietary quencher acceptor. […] Upon cleavage by BACE1, the fluorophore Mca is separated from the quenching group Dnp, restoring the full fluorescence yield of the donor. The increase in fluorescence is linearly related to the rate of proteolysis (Koike H et al. J Biochem. 1999, 126, 235-42).
Briefly in a 384-well format recombinant BACE1 protein in a final concentration of 1 μg/ml is incubated for 120 minutes at room temperature with 10 μm substrate in incubation buffer (40 mM Citrate buffer pH 5.0, 0.04% PEG, 4% DMSO) in the absence or presence of compound. Next the amount of proteolysis is directly measured by fluorescence measurement at T=0 and T=120 (excitation at 320 nm and emission at 405 nm). Results are expressed in RFU, as difference between T120 and T0.
A best-fit curve is fitted by a minimum sum of squares method to the plot of % Controlmin versus compound concentration. From this an […] value (inhibitory concentration causing 50% inhibition of activity) can be obtained.

Data set [3] has as its system Aβtotal produced and secreted into the medium of human neuroblastoma SKNBE2 cells. The data set is described as follows: Cellular αlisa assay in SKNBE2 cells, Aβtotal. Format: cell-based. The conditions noted are these: SKNBE2 expressing wild type hAPP695, incubated for 18 hours, read-out: Cellular αlisa assay in SKNBE2 cells Aβtotal pIC50 (converted). On the procedure: as §1, §2

Some results are limits rather than exact numbers.

T1 sequence (P56817 46-501): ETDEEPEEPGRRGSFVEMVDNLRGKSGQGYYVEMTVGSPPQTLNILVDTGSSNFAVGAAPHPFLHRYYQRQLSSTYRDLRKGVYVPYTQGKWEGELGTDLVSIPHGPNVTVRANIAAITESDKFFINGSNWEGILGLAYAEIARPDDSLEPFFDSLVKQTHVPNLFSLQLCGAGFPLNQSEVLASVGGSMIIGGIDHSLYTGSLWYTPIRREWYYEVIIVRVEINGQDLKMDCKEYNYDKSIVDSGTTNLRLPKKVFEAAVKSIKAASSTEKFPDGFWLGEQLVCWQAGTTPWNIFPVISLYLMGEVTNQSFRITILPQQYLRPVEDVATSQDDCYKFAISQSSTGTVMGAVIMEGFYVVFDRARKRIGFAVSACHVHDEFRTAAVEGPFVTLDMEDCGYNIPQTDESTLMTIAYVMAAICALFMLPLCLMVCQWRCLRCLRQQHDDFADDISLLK

Consider `CN1CC(C)(c2cccc(NC(=O)c3ccc(Cl)cn3)c2)N=C(N)C1=O` (stereo not drawn) [compound 3], for which the IC50 was 0.115 µM in data set [1], 0.457 µM in data set [2] and 0.107 µM in data set [3].
In turn, `COc1cncc(-c2cc(C3(C)CN(C)C(=O)C(N)=N3)c(F)cc2F)c1` (stereo not drawn) [compound 7] displayed a melting point of 180.5 °C. The IC50 in data set [1] was 4.47 µM. The IC50 in data set [2] is 7.59 µM. For the same compound, the IC50 in data set [3] is 4.07 µM.
On the same counts, the results for `CN1CC(C)(c2cccc(-c3cccc(C#N)c3)c2)N=C(N)C1=O` (stereo not drawn) [compound 1] are 218.6 °C, 7.08 µM, 27.5 µM and 5.75 µM.
On the same counts, the results for `COc1cncc(-c2cccc(C3(C)CN(C)C(=O)C(N)=N3)c2)c1` (stereo not drawn) [compound 2] are 230.4 °C, 7.94 µM, 15.5 µM and 5.75 µM.
For `CN1CC(C)(c2cccc(-c3cncnc3)c2)N=C(N)C1=O` (stereo not drawn) [compound 16] the same measures were 234.6 °C, over 10 µM, over 30.2 µM and over 10 µM.
Consider `CN1CC(C)(c2cc(-c3cncnc3)c(F)cc2F)N=C(N)C1=O` (stereo not drawn) [compound 10], for which the melting point was determined as 145.2 °C. The IC50 in data set [1] is over 10 µM. Further, in data set [2], the IC50 is over 30.2 µM. Moreover, the IC50 in data set [3] is over 10 µM.
The compound `CN1CC(C)(c2cc(-c3ccccc3)c(F)cc2F)N=C(N)C1=O` (stereo not drawn) [compound 6] registered a melting point of 141.5 °C. In addition, the IC50 in data set [1] is over 10 µM. Also, in data set [2], the IC50 was over 30.2 µM. The IC50 in data set [3] is over 10 µM.

(Values after patent publication US20130102618A1, “3-AMINO-5,6-DIHYDRO-1H-PYRAZIN-2-ONE DERIVATIVES USEFUL FOR THE TREATMENT OF ALZHEIMER'S DISEASE AND OTHER FORMS OF DEMENTIA” (JANSSEN PHARMACEUTICA NV, priority 2010, published 2013).)
